A word on the EC50: it is the concentration that produces a half-maximal response. Usually IC50 stands for the concentration that gives 50% inhibition. A lower IC50 goes with greater potency in that assay.

In brackets after ≈: the same amount, converted by molar mass. Where two headings read alike, the source gives them in different places. No end group written: not given here.

For data set [1], the system named is CEM-SS cells. Description: in vitro. As for the experimental part: (§1) Anti-HIV cytopathic effect inhibition assays were conducted as described (Buckheit et al. (1995) Antimicrob. Agents Chemother., 39:2718-2727). In brief, serially diluted peptides were added to a 96-well round bottom microtiter plate in triplicate. CEM-SS cells at a concentration of 2.5×10^3 cells per well and HIV-1IIIB at the appropriate pre-determined titer were sequentially added to the microtiter plate. The cultures were incubated at 5% CO2/37° C. for six days. Following the incubation, the microtiter plates were stained with XTT tetrazolium dye to evaluate the efficacy and toxicity of the test compound(s).
as §1, with “Cytopathic Effect (CPE) Inhibition Assay: The CPE assay was performed” for “Anti-HIV cytopathic effect inhibition assays were conducted”, “as previously” for “as”, “Briefly,” for “In brief,”, “compound was” for “peptides were”

Data set [2] is described as follows: in vitro. To be noted: human. As for the experimental part:
as §1
as §1, with “Cytopathic Effect (CPE) Inhibition Assay: The CPE assay was performed” for “Anti-HIV cytopathic effect inhibition assays were conducted”, “as previously” for “as”, “Briefly,” for “In brief,”, “compound was” for “peptides were”

Data set [3] relates to HIV-1IIIB. Description: microbe, parasite or virus in culture. The protocol: as §1
as §1, with “Cytopathic Effect (CPE) Inhibition Assay: The CPE assay was performed” for “Anti-HIV cytopathic effect inhibition assays were conducted”, “as previously” for “as”, “Briefly,” for “In brief,”, “compound was” for “peptides were”

The test system of data set [4] is methicin-resistant Staphylococcus aureus (MRSA) USA-300. The source says:
(§2) The frequently used residues identified in each kingdom may be applied to peptide design in different ways. First, new antimicrobial peptides can be designed based on ‘templates derived from naturally occurring antimicrobial peptides’. […] Second, new antimicrobial peptides can be designed by ‘combining database-derived peptide motifs’, consisting of frequently used residues. Using the motifs consisting of only residues Gly, Leu and Lys, a second peptide was designed. […] Third, new peptides can be designed based on ‘amino acid percentages obtained from statistical analysis of antimicrobial peptides’ from a specific kingdom or peptide family. Thus, a third peptide was designed in three steps. (i) The amino acid composition for MULTI-18 was obtained by multiplying the percentage of each residue with the total number of residues (18 here) in the target peptide. […] (iii) Multiple peptides can be obtained by combining the above motifs. Only one peptide was designed by following the amphipathic pattern for helical peptides.

Data set [5] has as its system E. coli K12.
Text: as §2

The test system of data set [6] is HIV. To be noted: literature; cited from earlier work.
Setting [7] is: Table 4, LL-37-derived peptides, CEM-SS cells.
The mark [8] stands for this setting: Table 5, BMAP-27-derived peptides, CEM-SS cells.
The mark [9] stands for this setting: >100 μg/ml defined as HIV inactive.

As to `Cc1cn([C@H]2C[C@H](N=[N+]=[N-])[C@@H](CO)O2)c(=O)[nH]c1=O` [AZT, reference compound], the CC50 in data set [1] (human, 6 days) was over 0.5 µM. The molecule also came in with a CC50 at 6 days in data set [2] of over 0.5 µM. Further, the EC50 in data set [3] (Human immunodeficiency virus 1) is 0.007 µM; in data set [3] (Human immunodeficiency virus 1, CEM-SS), 0.007 µM.

As for `CC[C@H](C)[C@H](NC(=O)[C@H](CCCNC(=N)N)NC(=O)[C@H](CCC(N)=O)NC(=O)[C@@H](NC(=O)[C@@H](NC(=O)[C@H](CCCNC(=N)N)NC(=O)[C@H](CCCCN)NC(=O)[C@H](Cc1ccccc1)NC(=O)CN)[C@@H](C)CC)C(C)C)C(=O)N[C@@H](CCCCN)C(=O)N[C@@H](CC(=O)O)C(=O)N[C@@H](Cc1ccccc1)C(=O)N[C@@H](CC(C)C)C(=O)N[C@@H](CCCNC(=N)N)C(=O)N[C@@H](CC(N)=O)C(=O)N[C@@H](CC(C)C)C(=O)N[C@H](C(N)=O)C(C)C` [GF-17], the CC50 in data set [1] was determined as 10.8 µM. In addition, the CC50 at 6 days in data set [2] worked out at 8.9 µM. Moreover, the CC50 at 144 h in data set [2] (CEM-SS cells) was determined as 18.7 µg/mL (≈ 8.9 µM).

The molecule GIKEFKREFQRIKDFLRNLV-NH2 [GI-20EF] yielded a CC50 at 6 days in data set [2] of 9.9 µM. The molecule also registered a concentration giving a half-maximal response (EC50) in data set [3] (setting [7]) of 1.6 µM.

In the case of GIKEFKRIVQRIKDFLRNLV-NH2 [GI-20], the CC50 at 6 days in data set [2] was found to be 22.7 µM. Moreover, in data set [3] (setting [7]), a half-maximal response (EC50) required 1.08 µM.

In data set [2], GIKEWKRIVQRIKDFLRNLV-NH2 [GI-20W17] had a CC50 at 6 days of 23.6 µM. This molecule also returned an EC50 in data set [3] (setting [7]) of 7.4 µM.

The molecule GIKQFKRIVQRIKDFLRNLV-NH2 [GI-20Q16] showed a CC50 at 6 days in data set [2] of 13.7 µM. In data set [3] (setting [7]), this molecule gave an EC50 of 0.91 µM.

The molecule GLKKLLGKLLKKLGKLLLK [GLK-19] returned a CC50 in data set [1] of 25.1 µM. Moreover, the values for the IC50 in data set [4] (USA-300) and in data set [5] (K12) were 160 µM and 10 µM, respectively. For the same molecule, the EC50 in data set [3] (1IIIB) is over 47.5 µM.

In data set [2], GRFKRFRKKFKKLFK-NH2 [BMAP-15] showed a CC50 at 6 days of over 49.6 µM. The EC50 in data set [3] (setting [8]) is over 49.6 µM.

Consider GRFKRFRKKFKKLFKKIS-NH2 [BMAP-18], for which the CC50 at 6 days in data set [2] was found to be 8.45 µM. In addition, the 50% effective concentration (EC50) in data set [3] (setting [9]) came out at 0.8 µg/mL; in data set [3] (setting [8]), 0.35 µM.

With GRFKRFRKPFKKLFKKIS-NH2 [BMAP-18P9], in data set [2], the CC50 at 6 days was determined as 18.9 µM. The same molecule registered an EC50 in data set [3] (setting [8]) of 3.2 µM.

As to GRFKRIRKKLKKLFKKIS-NH2 [BMAP-18I6L10], the CC50 at 6 days in data set [2] was determined as 2.79 µM. In addition, the concentration for a half-maximal effect (EC50) in data set [3] (setting [8]) is over 44 µM.

Regarding KKLLKKLKKLLK [KL-12], the “inactive against MRSA USA-300 until” value in data set [4] is recorded as over 160 mM. Further, the “inactive against E. coli K12 until” value in data set [5] was over 160 mM.

In data set [2], KRIVQRIKDFLR-NH2 [KR-12] gave a CC50 at 6 days of over 63.5 µM. Further, the half-maximal effective concentration (EC50) in data set [3] (setting [7]) is over 63.5 µM.

In turn, “LLGDLLRKSKEKIGKEFKRIVQRIKDFLRNLVPRTES [LL-37, reference compound]” returned a CC50 at 6 days in data set [2] of 18.4 µM. Also, the 50% effective concentration (EC50) in data set [3] (setting [9]) worked out at 7.3 µg/mL; in data set [3] (setting [7]), 1.6 µM.

The molecule RLFDKIRQVIRKF-NH2 [Retro-FK13] registered a CC50 at 6 days in data set [2] of 33.7 µM. For the same molecule, the half-maximal effective concentration (EC50) in data set [3] (setting [7]) was over 58.1 µM.

SKEKIGKEFKRIVQRIKDFLR [SK-21] registered a CC50 at 6 days in data set [2] (CEM-SS cells) of 22.5 µM. The “anti-HIV activity in words” value in data set [3] is reported as “active against HIV”. Further, the figures for the concentration for a half-maximal effect (EC50) in data set [3] (setting [9]) and in data set [3] (setting [7]) were 28.5 µg/mL and 10.8 µM, respectively.

With “indolicidin (ILPWKWPWWPWRR; ends and bridges not checked; UniProt P33046 131-143, looked up) [bovine Trp- and Pro-rich cathelicidin peptide]”, the “concentration required to be effective against HIV” value in data set [6] was 333 µg/mL.

These data come from patent US8722616B2, “Anti-HIV peptides and methods of use thereof” (priority 2009, dated 2014).
